In patent publication US9014457B2, “Quantifying cell death” (UCL Business PLC, priority 2009, dated 2015):
“Also recorded” adds a separate entry of the source. Counter-ions that a name gives are not always drawn. Like-named read-outs stand apart in the source and are kept apart here. Where a SMILES comes first, the peptide text is derived from it. The star is where a group is joined. Cbz = O=C(OCc1ccccc1)*

Columns and labels:
RGC [1] = settings: compared with MK-801; cited from earlier work
[2] = test system: astrocyte cultures (NADPH oxidase); settings: cited from earlier work
RGCs [3] = settings: in vitro and in vivo; cited from earlier work
Bad = settings: in vivo; cited from earlier work
NMDA receptors = settings: cited from earlier work
RGC [4] = assay: Chronic ocular hypertensive (OHT) experimental glaucoma model, in vivo imaging with annexin V and PI; set-up: species or system rat
Description: For the experimental glaucoma studies, the inventors used an established model of ocular hypertension. 18 rats underwent surgery to elevate intraocular pressure (IOP) by injection of hypertonic saline solution (1.8 M) into two episcleral veins as previously described (Cordeiro et al., 2004). Contralateral, unoperated eyes acted as controls. Animals were imaged at 0, 3, 8, and 16 weeks, with at least 3 animals at each time point being killed for histology immediately after imaging. A subgroup of animals (n=4) was treated at the time of surgery with the NMDA antagonist MK801 (0.6 nmol; Tocris Cookson Ltd, Bristol UK). These animals were imaged at 3 weeks and then killed for histology.
(§1) Using a method the inventors have recently described, rats were given 2.5 μg of intravitreal Alexa Fluor 488 labelled annexin V in 5 μl PBS for identification of RGC apoptosis, 2 hours before in vivo imaging (Cordeiro et al., 2004). For mice, the inventors used 1 μl of a 0.25 mg/ml solution of IR-labelled annexin (Annexin-IR) in intravitreal injections as previously described (Schmitz-Valckenberg et al., 2008).
(§2) In order to identify necrotic RGCs in rats (2 μl) and mice (1 μl), propidium iodide (PI; 0.4 mg/ml, 1% solution, Sigma-Aldrich, Dorset UK) was administered intravitreally at the same time as annexin, 2 hours before in vivo imaging. PI intercalates into nucleic acids, binding to double-stranded DNA, but only crosses the plasma membrane of non-viable cells. Cells that have lost membrane integrity are thus identified by fluorescent red PI staining throughout the nuclei.
All rats had in vivo retinal imaging performed at regular and set intervals after experimental treatment, using a prototype Zeiss confocal scanning laser ophthalmoscope (cSLO), as previously described (Cordeiro et al., 2004; Maass et al., 2007). Imaging was performed under general anaesthesia with animals being held in a stereotaxic frame, with their pupils dilated. Different lasers and filters were used for the different fluorochromes: for excitation of Alexa Fluor 488 an Argon laser wavelength of 488 nm, and a solid state photodetector with a 521 nm cut-off filter and a 550 nm cut-on filter was employed; for DiI, a diode-pumped crystal green laser with a wavelength of 532 nm was used with 550 nm cut-off and 600 nm cut-on filters; the same laser was used for PI visualization but with a 650 nm cut-off. […] Colour and raw scatter plots of annexin and PI fluorescence intensity were constructed, so data could be analysed in a similar manner to data derived by in vitro FACS analysis. […] Fluorescence intensity counts derived from raw scatter plots were used to quantify each phase of cell death. […]

RGC [5] = settings: in comparison to the controls; cited from earlier work
RGC [6] = assay: Abeta (Aβ25-35)-induced RGC death model, in vivo cSLO imaging with annexin V and PI; set-up: species or system mouse
Method: (§3) For the analysis of Abeta, freshly made Aβ25-35 (Sigma-Aldrich, 3.40 nmol) (Dahlgren et al., 2002) was intravitreally injected into C57 mice (n=10) (Maass et al., 2007). Animals were imaged at 72 hours. For AD 3× Tg-AD studies, 4 eyes (all female, 14 months) with 2 eyes from aged control mice (PS1KI; female, 18 months) were assessed. 3× Tg-AD and control PS1KI mice were obtained from a colony (maintained at CeSI) established after a generous gift of Frank Laferla. Intravitreal phorbol myristate acetate (1 μl of 10 μg/ml) was administered to left eyes of 3× Tg-AD animals, at the same time as annexin V and PI.
as §1, §2
(§4) In mice, the inventors used instrumentation as previously described (Maass et al., 2007; Schmitz-Valckenberg et al., 2008), with a modified cSLO (Heidelberg Retina Angiograph 2, Heidelberg Engineering, Dossenheim, Germany) and a wide-field lens (55°). The fluorescein angiogram (488 nm argon laser) and indocyanine green (IR 790 nm diode laser) settings were used to detect PI and IR-labelled annexin respectively. The same software was used to analyse video sequenced images as described before with whole retinal monochrome images from each eye recorded and colourised. Dual-color images were produced by combining each of the grayscale images from the cSLO into the red (PI), and green (IR annexin) of an RGB color image.
The left eye of each animal was treated with intravitreal 0.40 nmol MK801 at the same time as Abeta. Wide-angle retinal images were recorded 2 hours following intravitreal annexin (green) and PI (red), as previously described (Guo at al., 2006).
To assess the relative levels of early apoptosis, late apoptosis and necrosis the inventors studied the co-localization of PI and annexin V using ImageJ software with the Intensity Correlation Analysis plugin (Li et al., 2004). Colour and raw scatter plots of annexin and PI fluorescence intensity were constructed from plugin-generated data for each animal. Corresponding scatter plots (blue) from the eyes shown in FIG. 8a-b are illustrated in FIG. 8c-d. The data were analysed in a similar manner to data derived by in vitro FACS analysis, with four quadrants (midlines shaded in colour overlay as red, green, blue and yellow) enabling separation of the different phases of cell death as annexin V positive (early apoptosis, green), annexin V and PI double positive (late apoptosis, yellow) and PI positive (necrosis, red). Thresholds were set automatically by the plugin for each analysis of each eye. The inventors then used fluorescence intensity counts from the raw scatter plots to quantify each phase of cell death.
To further assess the analytical power of the technique, the inventors next investigated whether the level of oxidative stress in Abeta-treated eyes influenced the phase of cell death and whether this was possible to visualize in vivo. […] FIG. 8f-g are taken from the right untreated (F) and left PMA-treated (G) eye of an animal treated 72 hours previously with 3.40 nmol Aβ25-35. […]

retinal neurons = settings: in vitro; cited from earlier work
RGCs [7] = settings: cited from earlier work
[8] = test system: ROS production in the retina; assay: ROS production in mouse retina in vivo visualized with DHE; settings: intravitreal; vs vehicle/control eye
Method: FIG. 12B. The effects of rotenone on ROS production in mouse retina in vivo. ROS production visualized with DHE (dihydroethidium). DHE is a non-fluorescent agent, reacting with ROS intracellularly to produce a fluorescent oxidative product which can be detected. Rotenone (50 uM, 1 ul) was intravitreally injected into the one eye (C57) and the same volume of vehicle (saline) injected into the contralateral eye. DHE (1 ul) was then injected intravitreally and both eyes imaged to detect ROS production using a SLO machine.
FIG. 12C. The effects of PMA in producing ROS in mouse retina in vivo. PMA (50 ug/ml, 1 ul) was injected intravitreally into the one eye and saline (1 ul) into the contralateral eye. DHE (1 ul) was simultaneously injected for detecting ROS production.
FIG. 12D. The effects of Aβ25-35 on ROS production in vivo. DHE was intravitreally injected into the both eyes of a mouse to detect ROS production.

RGC [9] = assay: Alzheimer Triple Transgenic (3× Tg-AD) model and aged PS1KI control, retinal cell death imaging; type: in vivo, mouse
Method: as §3, §1, §2, §4
However, in these studies aged (27 month) wild type congeners were not assessed.
The inventors next investigated whether oxidative stress in AD eyes influenced the phase of cell death and whether this could be visualized in vivo. As intraneuronal Aβ accumulation and extracellular Abeta plaques are characteristics of this model (LaFerla et al., 2007), the inventors hypothesised that the addition of PMA would reveal whether the level of Abeta in this transgenic mouse is sufficient to modulate the retinal response in vivo (Abramov et al., 2005). […]

[10] = in vivo; cited from earlier work
RGC [11] = settings: in vitro and in vivo; cited from earlier work
[12] = test system: neurons within the contra-lateral Lateral geniculate Body; settings: in vivo; cited from earlier work
RGC [13] = settings: in vivo; cited from earlier work
[14] = phase III, patients with OAG; cited from earlier work
neuronal cells = settings: in vitro; cited from earlier work
RGC [15] = settings: rat, in vivo; cited from earlier work
RGCs [16] = settings: rat; cited from earlier work
[17] = 3 weeks after elevated IOP induction
[18] = Abeta + MK801 vs Abeta alone, 72 h

O=[N+]([O-])c1cc2nc(O)c(O)nc2cc1[N+](=O)[O-] [DNQX]
RGC survival (RGC [1]): greater enhancement

c1ccc2c(c1)[I+]c1ccccc1-2 [DPI]
PMA-induced lucigenin response [2]: blocked

C[C@]12N[C@H](Cc3ccccc31)c1ccccc12 [MK801, (+)-5-methyl-10,11-dihydro-5H-dibenzo[a,d]cyclohepten-5,10-imine maleate]
RGC protection (RGCs [3]): protect RGCs | Bad expression (Bad): decreasing | neurotoxicity (NMDA receptors): neurotoxic effect | late phase apoptosis (Anx+/PI+) (RGC [4]; [17]): significant reduction; also recorded: significant decrease | levels of necrosis (PI+) (RGC [4]; [17]): significant reduction; also recorded: significant decrease | number of dying cells (Total cell death markers) (RGC [4]; 3 weeks after elevated IOP induction, p<0.05): significant reduction | numbers of annexin V and PI positive (apoptotic and necrotic) cells (RGC [4]; MK801 0.6 nmol at the time of surgery, 3 weeks, vs untreated OHT): significantly reduced | number of apoptotic RGCs (RGC [5]): reduction | number of annexin V and PI positive cells (RGC [6]; 72 hours after intravitreal 3.40 nmol Aβ25-35, MK801 0.40 nmol intravitreal at the same time as Abeta, vs Abeta-only fellow eye): reduces | necrosis (PI+) (RGC [6]; [18]): clearly reduced; also recorded: reducing | number of cells in late phase apoptosis (Anx+/PI+) (RGC [6]; [18]): clearly reduced; also recorded: reducing | number of early phase apoptotic cells (Anx+) (RGC [6]; [18]): small increase | overall levels of cell death (Total) (RGC [6]; Abeta + MK801 vs Abeta alone, 72 h, co-localization scatter plot quantification): clearly reduced

COc1ccc2[nH]cc(CCNC(C)=O)c2c1 [Melatonin]
protection of retinal neurons (retinal neurons): protected | effect on RGCs in vivo (RGCs [7]): neuroprotective effect

CCCCCCCCCCCCCC(=O)O[C@@H]1[C@@H](C)[C@@]2(O)[C@@H](C=C(CO)C[C@]3(O)C(=O)C(C)=C[C@@H]23)[C@@H]2C(C)(C)[C@]12OC(C)=O [PMA, phorbol myristate acetate]
ROS production in the retina (DHE fluorescence) [8]: significantly higher levels of ROS production | overall levels of cell death (Total) (RGC [6]; Abeta + PMA vs Abeta, all treated animals, p<0.05): significantly (p<0.05) increases | number of cells in the early phase of apoptosis (Anx+) (RGC [6]; Abeta + PMA vs Abeta, p<0.05): significantly (p<0.05) increased; also recorded: significant (p<0.05) increase | annexin V (and PI) positive cells (RGC [6]; PMA 0.016 nmol with annexin V and PI, 72 hours after 3.40 nmol Aβ25-35, imaging 2 hours later, vs vehicle eye): increased | late apoptosis (Anx+/PI+) (RGC [9]; 3× Tg-AD model, p<0.05): decreased | increase in early phase apoptosis (Anx+) (RGC [9]; 14-month 3× Tg-AD, 2 hours after intravitreal PMA with annexin and PI): 61.4% | increase in early phase apoptosis (Anx+) (RGC [9]; aged control (PS1KI, 18 month), 2 hours after intravitreal PMA): 30.3% | necrosis (RGC [9]; control eyes, p<0.05): decreased | ROS generation (lucigenin) ([2]; 1 μg/ml): increase

Nc1nc2ccc(OC(F)(F)F)cc2s1 [Riluzole]
ERG wave recovery [10]: enhance | pressure-induced apoptosis [10]: prevent or decrease

CC(C)C[C@@H](C=O)NC(=O)[C@H](CC(C)C)NC(=O)[C@@H](NC(=O)OCc1ccccc1)C(C)C [Z-VLL-CHO, N-benzyloxycarbonyl-Val-Leu-leucinal] (Cbz-Val-Leu-Leu-aldehyde)
RGC apoptosis (RGC [11]): reduce

CC12CC3CC(C)(C1)CC(N)(C3)C2 [memantine, 1-amino-3,5-dimethyl-adamantane]
shrinkage of neurons (LGB layers 1, 4, and 6) [12]: reduction | RGC loss (RGC [13]): decreased | primary end point [14]: ineffective | NMDA-induced neuronal death (neuronal cells): reduction

Geranylgeranylacetone
RGC loss (RGC [15]): marked reduction | expression of HSP-72 (RGC [15]): increase

glatiramer acetate [Cop-1]
activity on RGCs in vivo (RGCs [16]): neuroprotective activity

superoxide dismutase
PMA-induced lucigenin response [2]: reversed
